The numbers were not newly measured in US7569547B2, “Inhibiting furin with polybasic peptides” (Board of Supervisors of Louisiana State University and …, priority 2001, dated 2009), which cites them from elsewhere.

A word on the Ki: it is a dissociation constant, usually derived from enzyme kinetics or from competition with a known ligand.

No end group written: not given here.

For series [1], the target named is T1, furin (Homo sapiens, UniProt P09958). As to conditions: Lu et al. 1993; cited from earlier work.
Series [2] addresses T1, furin. As to conditions: literature; read-out: Ki against furin; cited from earlier work.
The target in a further series is T2, PC7 (Homo sapiens, UniProt Q16549).
T2 sequence (Q16549 142-785): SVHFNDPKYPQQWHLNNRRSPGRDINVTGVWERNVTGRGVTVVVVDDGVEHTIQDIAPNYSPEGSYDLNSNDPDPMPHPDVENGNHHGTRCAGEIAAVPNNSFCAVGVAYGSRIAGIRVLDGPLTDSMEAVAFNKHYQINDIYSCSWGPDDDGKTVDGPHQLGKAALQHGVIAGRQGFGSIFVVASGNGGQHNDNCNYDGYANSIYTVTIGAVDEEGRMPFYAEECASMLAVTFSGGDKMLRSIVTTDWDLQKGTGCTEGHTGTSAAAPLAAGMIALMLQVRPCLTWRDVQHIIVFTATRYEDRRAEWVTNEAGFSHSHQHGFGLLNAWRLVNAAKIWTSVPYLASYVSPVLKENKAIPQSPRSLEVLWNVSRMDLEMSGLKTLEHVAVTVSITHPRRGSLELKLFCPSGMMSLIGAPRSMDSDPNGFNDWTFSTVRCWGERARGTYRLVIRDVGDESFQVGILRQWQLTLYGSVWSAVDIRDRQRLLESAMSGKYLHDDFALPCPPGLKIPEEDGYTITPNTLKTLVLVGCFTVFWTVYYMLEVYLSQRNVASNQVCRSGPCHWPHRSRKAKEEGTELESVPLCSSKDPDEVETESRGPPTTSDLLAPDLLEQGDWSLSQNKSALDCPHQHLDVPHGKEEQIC
As to conditions: Zhong et al. 1999; read-out: Ki against PC7; cited from earlier work.

T1 sequence (P09958 108-794): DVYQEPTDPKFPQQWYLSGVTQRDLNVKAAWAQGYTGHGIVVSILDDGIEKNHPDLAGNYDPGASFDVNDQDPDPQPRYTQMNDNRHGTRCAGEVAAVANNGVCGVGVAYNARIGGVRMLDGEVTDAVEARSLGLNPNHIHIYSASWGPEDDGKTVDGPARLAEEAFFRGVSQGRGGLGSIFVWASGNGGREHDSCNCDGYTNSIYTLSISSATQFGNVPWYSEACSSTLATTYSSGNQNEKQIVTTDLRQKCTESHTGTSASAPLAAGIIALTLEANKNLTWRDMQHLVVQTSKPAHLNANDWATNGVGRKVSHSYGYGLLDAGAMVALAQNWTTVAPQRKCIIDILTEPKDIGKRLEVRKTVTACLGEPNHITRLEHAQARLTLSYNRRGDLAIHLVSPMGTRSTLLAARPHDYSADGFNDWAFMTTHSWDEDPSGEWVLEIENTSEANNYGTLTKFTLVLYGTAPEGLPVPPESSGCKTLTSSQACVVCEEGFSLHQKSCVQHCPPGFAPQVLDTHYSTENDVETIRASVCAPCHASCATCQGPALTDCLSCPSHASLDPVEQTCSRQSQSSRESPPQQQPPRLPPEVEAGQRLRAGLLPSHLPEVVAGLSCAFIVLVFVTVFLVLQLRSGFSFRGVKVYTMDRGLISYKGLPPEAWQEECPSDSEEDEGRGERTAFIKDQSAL

For “Arg^15-Lys^17-Arg^18 turkey ovomucoid third domain: third domain of turkey ovomucoid engineered (KPACTLE^19→KPRCKRE^19) to increase specificity towards furin (not fully specified; ends and bridges not checked)”, the equilibrium constant with furin [1] is 1.1e+07 M⁻¹.

In the case of EQRLLKRAKR, the inhibition constant Ki at furin [2] is 80 nM; on PC7 it was 6 nM.

For QQVAKRRTKR, the Ki at PC7 is ~500 nM.
